Results on eight molecules are retold here after patent publication US20260022143A1, “Cyclic Peptide Inhibitors of IL-23” (JANSSEN PHARMACEUTICA NV, priority 2022, published 2026).

Starred links: 1 amine or outer side, 2 acyl side, 3 side chain; linkers in the order of their positions; H or OH if unused. Positions of bridges follow the written chain, without caps; N, C: chain ends. Non-standard residues stand in square brackets, D forms with d. Residues, ends and D or L forms follow the SMILES beside them. *: point of attachment. Me3N+(CH2)2O(CH2)2O(CH2)2CO = C[N+](C)(C)CCOCCOCCC(=O)*; X59 = C[N+](C)(C)CCN(CC*)S(=O)(=O)c1ccccc1[N+](=O)[O-]; Trp(7-Me) = Cc1cccc2c(C[C@H](N)C(=O)O)c[nH]c12; Abu(4-yl) = O=C([C@H](CC[*:3])N[*:1])[*:2]; dLys(Me3) = C[N+](C)(C)CCCC[C@@H](N)C(=O)O; 3Pal(5-Me) = Cc1cncc(C[C@H](N)C(=O)O)c1; CH2CH2OCH2CH2NMe3+ = C[N+](C)(C)CCOCC*; 2Nal = N[C@@H](Cc1ccc2ccccc2c1)C(=O)O; AEF = NCCOc1ccc(C[C@H](N)C(=O)O)cc1; 3Pal = N[C@@H](Cc1cccnc1)C(=O)O; Lys(Me) = CNCCCC[C@H](N)C(=O)O; Pen = CC(C)(S)[C@H](N)C(=O)O; αMeC = C[C@](N)(CS)C(=O)O; Thp = NC1(C(=O)O)CCOCC1; X3 = C[N+](C)(C)CCCCC*; Sar = CNCC(=O)O

The target in series [1] is T1, IL-23R (Homo sapiens, UniProt Q5VWK5).
T1 construct: host or cells: HEK293
T1 sequence (Q5VWK5 24-629): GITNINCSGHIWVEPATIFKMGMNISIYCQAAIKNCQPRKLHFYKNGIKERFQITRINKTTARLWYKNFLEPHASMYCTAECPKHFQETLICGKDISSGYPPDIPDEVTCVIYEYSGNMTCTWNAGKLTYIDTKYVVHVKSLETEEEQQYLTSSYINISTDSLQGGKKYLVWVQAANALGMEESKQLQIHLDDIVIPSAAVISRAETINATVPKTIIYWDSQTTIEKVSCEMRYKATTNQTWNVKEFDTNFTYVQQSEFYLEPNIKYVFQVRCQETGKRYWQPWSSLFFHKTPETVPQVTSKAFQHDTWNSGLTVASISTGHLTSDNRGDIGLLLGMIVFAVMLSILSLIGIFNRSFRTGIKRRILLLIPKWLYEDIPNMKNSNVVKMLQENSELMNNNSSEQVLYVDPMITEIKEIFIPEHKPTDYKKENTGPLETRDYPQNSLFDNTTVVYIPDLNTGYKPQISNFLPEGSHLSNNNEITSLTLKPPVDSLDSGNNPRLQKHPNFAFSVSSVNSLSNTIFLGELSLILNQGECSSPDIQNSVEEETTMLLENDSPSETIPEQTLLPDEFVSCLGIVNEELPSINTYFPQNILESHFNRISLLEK
Description: IL23R Reporter Assay. The class given is cell-based. The conditions noted are these: HEK293 cells containing IL-23R, IL-12RP1 and STAT-inducible firefly luciferase reporter; 10 ng/mL IL-23 (EC90); 5 h at 37° C.; read-out: IL23R Reporter Assay.

The nature of series [2]: Exposed Polar Surface Area (EPSA). It counts as physicochemical. The conditions noted are these: SFC on Chirex 3014 column; sample 1 mM DMSO stock; read-out: EPSA. In a few lines:
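Retention-based polarity: supercritical CO2 with 20 mM ammonium formate in MeOH (5–60%, 20%/min), Chirex 3014 column, 35 °C. Calibrated against 8 standards to give EPSA (Å^2); each sample measured twice.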

Turning to `CC(=O)N(C)CCCC[C@H](NC(=O)C1(NC(=O)[C@H](Cc2ccc3ccccc3c2)NC(=O)[C@H](Cc2ccc(OCCCCC[N+](C)(C)C)cc2)NC(=O)[C@H]2NC(=O)[C@H](C)NC(=O)[C@H](Cc3c[nH]c4c(C)cccc34)NC(=O)[C@H]([C@@H](C)O)NC(=O)[C@H](CC(=O)N(C)C)NC(=O)[C@@H](NC(=O)CCOCCOCC[N+](C)(C)C)C(C)(C)SSC2(C)C)CCOCC1)C(=O)N[C@@H](CC(N)=O)C(=O)N[C@@H](Cc1cccnc1)C(=O)N(C)CC(=O)N(C)C` [compound 492, cPEG3aCO-Pen(3)-N(N(Me)2)-T-7MeW-A-Pen(3)-TMAPF-2Nal-THP-K(NMeAc)-N-3Pya-Sar-CON(Me)2] ({Me3N+(CH2)2O(CH2)2O(CH2)2CO}-[Pen]D(NMe2)T[Trp(7-Me)]A[Pen]Y(X3)[2Nal][Thp][Lys(Me)](Ac)N[3Pal][Sar]-NMe2; disulfide 1-6), the IC50 in series [1] was 6.4 nM. The EPSA in series [2] was determined as 165 A^2.

`CC(=O)N(C)CCCC[C@@H]1NC(=O)[C@H](Cc2c[nH]c3c(C)cccc23)NC(=O)[C@H]([C@@H](C)O)NC(=O)[C@H](CC(=O)N(C)C)NC(=O)[C@@H](NC(=O)CCOCCOCC[N+](C)(C)C)C(C)(C)SSC(C)(C)[C@@H](C(=O)N[C@@H](Cc2ccc(OCCCCC[N+](C)(C)C)cc2)C(=O)N[C@@H](Cc2ccc3ccccc3c2)C(=O)NC2(C(=O)N[C@@H](CCCCN(C)C(C)=O)C(=O)N[C@@H](CC(N)=O)C(=O)N[C@@H](Cc3cccnc3)C(=O)N(C)CC(N)=O)CCOCC2)NC1=O` [compound 326, cPEG3aCO-Pen(3)-N(N(Me)2)-T-7MeW-K(NMeAc)-Pen(3)-TMAPF-2Nal-THP-K(NMeAc)-N-3Pya-Sar-CONH2] ({Me3N+(CH2)2O(CH2)2O(CH2)2CO}-[Pen]D(NMe2)T[Trp(7-Me)][Lys(Me)](Ac)[Pen]Y(X3)[2Nal][Thp][Lys(Me)](Ac)N[3Pal][Sar]-NH2; disulfide 1-6): the IC50 in series [1] came to 0.85 nM. For the same molecule, the EPSA in series [2] is 157 A^2.

In the case of `CC(=O)NCCCC[C@@H]1NC(=O)[C@H](Cc2c[nH]c3c(C)cccc23)NC(=O)[C@H]([C@@H](C)O)NC(=O)[C@H](CC(N)=O)NC(=O)[C@@H](NC(=O)[C@@H](CCCNC(=N)N)NC(=O)CCOCCOCC[N+](C)(C)C)C(C)(C)SSC(C)(C)[C@@H](C(=O)N[C@@H](Cc2ccc(OCCN)cc2)C(=O)N[C@@H](Cc2ccc3ccccc3c2)C(=O)NC2(C(=O)N[C@@H](CCCCNC(C)=O)C(=O)N[C@@H](CC(N)=O)C(=O)N[C@@H](Cc3cncc(C)c3)C(=O)N(C)CC(N)=O)CCOCC2)NC1=O` [compound 541, cPEG3aCO-r-Pen(3)-N-T-7MeW-K(Ac)-Pen(3)-AEF-2Nal-THP-K(Ac)-N-5MePyridinAla-Sar-CONH2] ({Me3N+(CH2)2O(CH2)2O(CH2)2CO}-[dR][Pen]NT[Trp(7-Me)]K(Ac)[Pen][AEF][2Nal][Thp]K(Ac)N[3Pal(5-Me)][Sar]-NH2; disulfide 2-7), the IC50 in series [1] was found to be 0.97 nM. For the same molecule, the EPSA in series [2] was 187 A^2.

As for `CC(=O)N(C)CCCC[C@@H]1NC(=O)[C@H](Cc2c[nH]c3c(C)cccc23)NC(=O)[C@H]([C@@H](C)O)NC(=O)[C@H](CC(=O)N(C)C)NC(=O)[C@@H](NC(=O)CCOCCOCC[N+](C)(C)C)C(C)(C)SSC(C)(C)[C@@H](C(=O)N[C@@H](Cc2ccc(OCCN)cc2)C(=O)N[C@@H](Cc2ccc3ccccc3c2)C(=O)NC2(C(=O)N[C@@H](CCCCN(C)C(C)=O)C(=O)N[C@@H](CC(N)=O)C(=O)N[C@@H](Cc3cccnc3)C(=O)N(C)CC(=O)N(C)C)CCOCC2)NC1=O` [compound 320, cPEG3aCO-Pen(3)-N(N(Me)2)-T-7MeW-K(NMeAc)-Pen(3)-AEF-2Nal-THP-K(NMeAc)-N-3Pya-Sar-CON(Me)2] ({Me3N+(CH2)2O(CH2)2O(CH2)2CO}-[Pen]D(NMe2)T[Trp(7-Me)][Lys(Me)](Ac)[Pen][AEF][2Nal][Thp][Lys(Me)](Ac)N[3Pal][Sar]-NMe2; disulfide 1-6), the IC50 in series [1] is 0.95 nM. In series [2], the EPSA was determined as 162 A^2.

As for `CC(=O)N(C)CCCC[C@H](NC(=O)C1(NC(=O)[C@H](Cc2ccc3ccccc3c2)NC(=O)[C@H](Cc2ccc(OCCN)cc2)NC(=O)[C@H]2NC(=O)[C@H](COCCOCC[N+](C)(C)C)NC(=O)[C@H](Cc3c[nH]c4c(C)cccc34)NC(=O)[C@H]([C@@H](C)O)NC(=O)[C@H](CC(=O)N(C)C)NC(=O)[C@@H](NC(=O)CCOCCOCC[N+](C)(C)C)C(C)(C)SSC2(C)C)CCOCC1)C(=O)N[C@@H](CC(N)=O)C(=O)N[C@@H](Cc1cccnc1)C(=O)N(C)CC(=O)N(C)C` [compound 245, cPEG3aCO-Pen(3)-N(N(Me)2)-T-7MeW-APEG2Ser-Pen(3)-AEF-2Nal-THP-K(NMeAc)-N-3Pya-Sar-CON(Me)2] ({Me3N+(CH2)2O(CH2)2O(CH2)2CO}-[Pen]D(NMe2)T[Trp(7-Me)]S(CH2CH2OCH2CH2NMe3+)[Pen][AEF][2Nal][Thp][Lys(Me)](Ac)N[3Pal][Sar]-NMe2; disulfide 1-6), the IC50 in series [1] came out at 42 nM. The EPSA in series [2] stood at 148 A^2.

Regarding `CC(=O)N(C)CCCC[C@@H]1NC(=O)[C@H](Cc2c[nH]c3c(C)cccc23)NC(=O)[C@H]([C@@H](C)O)NC(=O)[C@H](CC(=O)N(C)C)NC(=O)[C@@H](NC(=O)CCOCCOCC[N+](C)(C)C)C(C)(C)SSC(C)(C)[C@@H](C(=O)N[C@@H](Cc2ccc(OCCN(CC[N+](C)(C)C)S(=O)(=O)c3ccccc3[N+](=O)[O-])cc2)C(=O)N[C@@H](Cc2ccc3ccccc3c2)C(=O)NC2(C(=O)N[C@@H](CCCCN(C)C(C)=O)C(=O)N[C@@H](CC(N)=O)C(=O)N[C@@H](Cc3cccnc3)C(=O)N(C)CC(=O)N(C)C)CCOCC2)NC1=O` [compound 206, cPEG3aCO-Pen(3)-N(N(Me)2)-T-7MeW-K(NMeAc)-Pen(3)-AEF(NsCh)-2Nal-THP-K(NMeAc)-N-3Pya-Sar-CON(Me)2] ({Me3N+(CH2)2O(CH2)2O(CH2)2CO}-[Pen]D(NMe2)T[Trp(7-Me)][Lys(Me)](Ac)[Pen]Y(X59)[2Nal][Thp][Lys(Me)](Ac)N[3Pal][Sar]-NMe2; disulfide 1-6), the IC50 in series [1] was determined as 2.6 nM. Further, the EPSA in series [2] was 145 A^2.

With `CC(=O)NCCCC[C@@H]1NC(=O)[C@H](Cc2c[nH]c3ccccc23)NC(=O)[C@H]([C@@H](C)O)NC(=O)[C@H](CC(N)=O)NC(=O)[C@@H](NC(=O)[C@@H](CCCC[N+](C)(C)C)NC(C)=O)CCSC[C@@](C)(C(=O)N[C@@H](Cc2ccc(OCCCCC[N+](C)(C)C)cc2)C(=O)N[C@@H](Cc2ccc3ccccc3c2)C(=O)NC2(C(=O)N[C@@H](CCC(=O)O)C(=O)N[C@@H](CC(N)=O)C(=O)N[C@@H](Cc3cccnc3)C(=O)N(C)CC(N)=O)CCOCC2)NC1=O` [compound 567, MeCO-k(Me)3-Abu(1)-N-T-W-K(Ac)-aMeC(1)-TMAPF-2Nal-THP-E-N-3Pya-Sar-CONH2] (Ac-[dLys(Me3)][Abu(4-yl)]NTWK(Ac)[αMeC]Y(X3)[2Nal][Thp]EN[3Pal][Sar]-NH2; thioether 2-7), the IC50 in series [1] stood at 3.1 nM. Also, the EPSA in series [2] came to 172 A^2.

In the case of `CC(=O)N(C)CCCC[C@@H]1NC(=O)[C@H](Cc2c[nH]c3c(C)cccc23)NC(=O)[C@H]([C@@H](C)O)NC(=O)[C@H](CC(=O)N(C)C)NC(=O)[C@@H](NC(=O)CCOCCOCC[N+](C)(C)C)C(C)(C)SSC(C)(C)[C@@H](C(=O)NC(Cc2ccc(OCCN(CCOCC[N+](C)(C)C)CCOCC[N+](C)(C)C)cc2)C(=O)N[C@@H](Cc2ccc3ccccc3c2)C(=O)NC2(C(=O)N[C@@H](CCCCN(C)C(C)=O)C(=O)N[C@@H](CC(N)=O)C(=O)N[C@@H](Cc3cccnc3)C(=O)N(C)CC(=O)N(C)C)CCOCC2)NC1=O` (stereo partly drawn) [compound 265, cPEG3aCO-Pen(3)-N(N(Me)2)-T-7MeW-K(NMeAc)-Pen(3)-AEF(BisPEG2a)(RS)-2Nal-THP-K(NMeAc)-N-3Pya-Sar-CON(Me)2], the IC50 in series [1] turned out to be 6.4 nM. Moreover, the EPSA in series [2] stood at 159 A^2.
